Source: patent publication US12144795B2, “Cannabidiol compositions having modified cannabinoid profiles” (priority 2018, dated 2024)
Like-named read-outs stand apart in the source and are kept apart here.

Experiments:
[1] = Stability studies of CBD prepared via Protocol 3 (crude, pure, 2x recrystallized; 5° C., 25° C./60% RH, 40° C./75% RH); format: physicochemical
[2] = Cooling crystallization, XRPD before and after AAC; format: physicochemical
Procedure: Cooling crystallizations were performed by preparing clear solutions of CBD with a maximum concentration of approximately 60 mg/mL. The solutions were slowly cooled to 0° C. and kept at this temperature for 48 hours. Precipitated solids were collected, dried under ambient conditions, and analyzed by XRPD. If no solids had precipitated, the mother liquors were allowed to slowly evaporate and the remaining solids were analyzed by XRPD. All solids were exposed to accelerated aging conditions for 48 hours and analyzed again by XRPD. Cannabidiol precipitated upon cooling from pentane and heptane. […] When no XRPD record was generated, the field is defined as “Not Applicable” (N/A).

[3] = Liquid diffusion crystallization, solid form by HT-XRPD; format: physicochemical
Procedure: A solution of cannabidiol of about 75 mg/mL was prepared and a layer of anti-solvent was carefully added to the vial. These experiments were performed with water as anti-solvent because of the larger difference in density between solvent and anti-solvent.

[4] = format: physicochemical
[5] = Crystallization by single solvent drop grinding, HT-XRPD before and after AAC; format: physicochemical
Procedure: For the grinding experiments, 40 mg cannabidiol was placed in a stainless steel container with 10 μL solvent and two steel beads. The vials were shaken for 1 hour at 30 Hz, after which the solids were collected for XRPD analysis. All of the samples were classified as Form A based on HT-XRPD analysis.

[6] = Stress stability tests of CBD (acidic, alkaline, oxidative, light, heat, humidity; UPLC, LC-MS, PDA-UV); format: physicochemical
Procedure: Cannabidiol samples obtained by Protocol 1 were subjected to acidic, alkaline, and oxidizing conditions in order to achieve a degradation of at least 3% or a change in appearance. The impact of light, heat, and humidity on the stability of the drug substance was investigated. The assay and purity of samples were analyzed by UPLC. The identity of unknown impurities was examined by LC-MS. The peak purity of cannabidiol after exposure to stress conditions was investigated by comparing the PDA-UV spectrum (photodiode array-ultraviolet) of cannabidiol with the spectrum of the unstressed sample and in addition by LC-MS analysis of the cannabidiol peak. The assay of the unstressed sample in FIG. 15A and FIG. 15B was used as a reference to calculate the extent of degradation of CBD under the representative stress conditions: Degradation of CBD=(1−[assay of stressed sample]/[assay unstressed sample])*100% […]
In a 20 ml GC headspace vial, 150 mg of CBD was suspended in 8 mL of 0.1 M sodium hydroxide and heated to T=80° C. for 2 h, 4 h and 6 h, respectively. […]

[7] = solvent 1,4-Dioxane, anti-solvent Water
[8] = solvent Diethanolamine, anti-solvent Water
[9] = solvent Diethylene glycol, anti-solvent Water
[10] = solvent Dimethyl sulfoxide, anti-solvent Water
[11] = 1 month Accelerated 40° C./75% RH
[12] = 1.5 months Accelerated 40° C./75% RH
[13] = 2 months Accelerated 40° C./75% RH
[14] = 3 months Accelerated 40° C./75% RH
[15] = 5 months Accelerated 40° C./75% RH
[16] = 6 months Accelerated 40° C./75% RH

## C=C(C)[C@@H]1CCC(C)=C[C@H]1c1c(O)cc(CCCCC)cc1O [CBD, (1′R,2′R)-5′-methyl-4-pentyl-2′-(prop-1-en-2-yl)-1′,2′,3′,4′-tetrahydro-[1,1′-biphenyl]-2,6-diol]
[1]
  Hygroscopicity: not hygroscopic
[2]; AAC for 48 hours
  Effect of accelerated aging conditions: no effect on the crystallinity
[2]; from pentane and heptane, cooled to 0° C., 48 hours
  XRPD of solids precipitated upon cooling: identical to starting material Form A
[2]; solvent 1,2-Dimethoxyethane
  Dissolved at initial T?: Yes
  Solids after T profile: No
[2]; solvent 1,4-Dioxane
  Dissolved at initial T?: Yes
  Solids after T profile: No
[2]; solvent 2,2,4-Trimethylpentane
  Dissolved at initial T?: No
  Solids after T profile: No
[2]; solvent Acetone
  Dissolved at initial T?: Yes
  Form by HT-XRPD Dry solids: Oily
  Solids after T profile: No
[2]; solvent Acetonitrile
  Dissolved at initial T?: Yes
  Form by HT-XRPD Dry solids: Oily
  Solids after T profile: No
[2]; solvent Chloroform
  Dissolved at initial T?: Yes
  Form by HT-XRPD Dry solids: Oily
  Solids after T profile: No
[2]; solvent Cyclohexane
  Dissolved at initial T?: Yes
  Solids after T profile: No
[2]; solvent Diethylene glycol
  Dissolved at initial T?: Yes
  Form by HT-XRPD Dry solids: Oily
  Solids after T profile: No
[2]; solvent Ethanol
  Dissolved at initial T?: Yes
  Solids after T profile: No
[2]; solvent Ethyl acetate
  Dissolved at initial T?: Yes
  Form by HT-XRPD Dry solids: Oily
  Solids after T profile: No
[2]; solvent Heptane
  Dissolved at initial T?: Yes
  Form by HT-XRPD Dry solids: Oily
  Solids after T profile: No
[2]; solvent Hexane
  Dissolved at initial T?: No
  Solids after T profile: Yes
[2]; solvent Pentane
  Dissolved at initial T?: No
  Solids after T profile: Yes
[2]; solvent Tetrahydrofuran
  Dissolved at initial T?: Yes
  Form by HT-XRPD Dry solids: Oily
  Solids after T profile: No
[2]; solvent Water
  Dissolved at initial T?: No
  Form by HT-XRPD Dry solids: Low yield
  Solids after T profile: No
[3]; AAC for 2 days
  Effect of accelerated aging conditions: no effect on the solid form
[3]; [7]
  Solid form by HT-XRPD Ambient After AAC: oily
  Solid form by HT-XRPD Ambient Before AAC: oily
  Solid form by HT-XRPD Vacuum: Oily
  Solids after?: No
[3]; [8]
  Solid form by HT-XRPD Vacuum: Oily
  Solids after?: Yes
[3]; [9]
  Solid form by HT-XRPD Vacuum: Oily
  Solids after?: Yes
[3]; [10]
  Solid form by HT-XRPD Vacuum: Oily
  Solids after?: Yes
[3]; water as anti-solvent, except 1,4-dioxane, diethylene glycol, DMSO and diethanolamine
  XRPD of crystalline precipitates: indicative of Form A
[4]; 0 month
  Chromatographic Purity: 4-Monobromo-cannabidiol: <0.03%
  Chromatographic Purity: Individual unspecified impurity: <0.03%
  Chromatographic Purity: Olivetol: <0.03%
  Chromatographic Purity: Sum of impurities: <0.05%
[4]; 1 month 5° C.
  Chromatographic Purity: 4-Monobromo-cannabidiol: <0.03%
  Chromatographic Purity: Individual unspecified impurity: <0.03%
  Chromatographic Purity: Olivetol: <0.03%
  Chromatographic Purity: Sum of impurities: <0.05%
[4]; 1 month 25° C./60% RH
  Chromatographic Purity: 4-Monobromo-cannabidiol: <0.03%
  Chromatographic Purity: Individual unspecified impurity: <0.03%
  Chromatographic Purity: Olivetol: <0.03%
  Chromatographic Purity: Sum of impurities: <0.05%
[4]; [11]
  Chromatographic Purity: 4-Monobromo-cannabidiol: <0.03%
  Chromatographic Purity: Individual unspecified impurity: <0.03%
  Chromatographic Purity: Olivetol: <0.03%
  Chromatographic Purity: Sum of impurities: <0.05%
[4]; 1.5 months 25° C./60% RH
  Chromatographic Purity: 4-Monobromo-cannabidiol: <0.03%
  Chromatographic Purity: Individual unspecified impurity: <0.03%
  Chromatographic Purity: Olivetol: <0.03%
  Chromatographic Purity: Sum of impurities: <0.05%
[4]; [12]
  Chromatographic Purity: 4-Monobromo-cannabidiol: <0.03%
  Chromatographic Purity: Individual unspecified impurity: <0.03%
  Chromatographic Purity: Olivetol: <0.03%
  Chromatographic Purity: Sum of impurities: <0.05%
[4]; [13]
  Chromatographic Purity: 4-Monobromo-cannabidiol: <0.03%
  Chromatographic Purity: Individual unspecified impurity: <0.03%
  Chromatographic Purity: Olivetol: <0.03%
  Chromatographic Purity: Sum of impurities: <0.05%
[4]; [14]
  Chromatographic Purity: 4-Monobromo-cannabidiol: <0.03%
  Chromatographic Purity: Individual unspecified impurity: <0.03%
  Chromatographic Purity: Olivetol: <0.03%
  Chromatographic Purity: Sum of impurities: <0.05%
[4]; [15]
  Chromatographic Purity: 4-Monobromo-cannabidiol: <0.03%
  Chromatographic Purity: Individual unspecified impurity: <0.03%
  Chromatographic Purity: Olivetol: <0.03%
  Chromatographic Purity: Sum of impurities: <0.05%
[4]; 6 months 25° C./60% RH
  Chromatographic Purity: 4-Monobromo-cannabidiol: <0.03%
  Chromatographic Purity: Individual unspecified impurity: <0.03%
  Chromatographic Purity: Olivetol: <0.03%
  Chromatographic Purity: Sum of impurities: <0.05%
[4]; [16]
  Chromatographic Purity: 4-Monobromo-cannabidiol: <0.03%
  Chromatographic Purity: Individual unspecified impurity: <0.03%
  Chromatographic Purity: Olivetol: <0.03%
  Chromatographic Purity: Sum of impurities: <0.05%
[5]; AAC for two days
  Effect of accelerated aging conditions: did not lead to any physical changes
[5]; ground 1 hour at 30 Hz with 10 μL solvent, all samples
  Form by HT-XRPD analysis: Form A
[6]; 0.1 M hydrochloric acid, 80° C., 2 h, 4 h and 6 h
  Appearance after stress: suspension of yellowish melted CBD in a clear colorless aqueous solution
[6]; 0.1 M sodium hydroxide, 80° C., 2 h, 4 h and 6 h
  Appearance after stress: suspension of yellowish melted CBD in a violet aqueous solution
[6]; 24 h at 75% r.h.
  Appearance after stress: did not change its appearance
[6]; Acidic, 80° C.
  Proposed main degradation products(s): D9-THC
[6]; Acidic, 6 h, 80° C. (0.1 M hydrochloric acid)
  Degradation of CBD: 4%
[6]; Alkaline stress
  Proposed main degradation products(s): several isomers of CBQ
[6]; Alkaline stress, stock solution at the time of the LC-MS analysis
  Degradation of CBD: > 80%
[6]; Heat, 100° C. for 24 h
  Proposed main degradation products(s): Hydroxy-CBD and Hydroxy-CBQ
[6]; Heat, 24 h, 100° C.
  Degradation of CBD: 1%
[6]; Humidity, 24 h, 24° C.
  Proposed main degradation products(s): No prominent degradation product
[6]; Humidity, 24 h, 24° C. (75% r.h.)
  Degradation of CBD: 0%
[6]; Light, 24 h 24° C.
  Degradation of CBD: 1%
  Proposed main degradation products(s): No prominent degradation product
[6]; Oxidative stress (H2O2)
  Proposed main degradation products(s): Hydroxy-CBD (CBD-OH)
[6]; Oxidative, 6 h 80° C. (hydrogen peroxide 0.3% w/w)
  Degradation of CBD: 3%
[6]; elevated temperatures lower than 100° C.
  Degradation of CBD: no significant degradation
[6]; heated to 50° C. and 60° C. for 1 hour
  Appearance after stress: turned slightly yellow but did not change their physical condition
[6]; heated to 70° C. for one hour
  Appearance after stress: partially melted
[6]; heated to 80° C. or higher
  Appearance after stress: fully melted and exhibited a yellow color
[6]; hydrogen peroxide (0.3% w/w), 80° C., 2 h, 4 h and 6 h
  Appearance after stress: suspension of yellowish melted CBD in a clear colorless aqueous solution
[6]; irradiated with light 24 h, 24° C.
  Appearance after stress: turned slightly yellow
